Laboratory results as given in PMC12040169 (PLOS Biology, 2025).

assay: in vitro; details: human, hela cells, % viability

| SMILES | viability at 28.5 h, 10 µM [%] |
| --- | --- |
| COc1ccc(C(=O)N2CCC3(CCN(C(=O)c4ccc5[nH]c(=O)[nH]c5c4)C3)C2)cc1OC (stereo not shown) [CBK131793] | 100 |
| CCOc1cccc(NC(=O)/C(C#N)=C\c2cc(C)n(-c3ccc4c(c3)OCO4)c2C)c1 [CBK263191] | 85.9 |
| CCc1cn(C[C@H](NC(=O)C2CCC2)C(=O)O)c(=O)[nH]c1=O [CBK289663] | 97.1 |
| Cc1c(C(=O)N2CCCCC2C(N)=O)nnn1-c1cccc(Cl)c1 (stereo not shown) [CBK305490] | 106 |
| Cc1nn(C)cc1-c1cncn1CC1(N(C)C)CCC(C)CC1 (stereo not shown) [CBK281799] | 88.9 |
| O=C(NCCc1cccs1)Nc1cc(F)ccc1F [CBK043935] | 113 |
| CCOC(=O)N1CCN(S(=O)(=O)c2ccc3c(c2)oc(=O)n3C)CC1 [CBK304667] | 105 |
| OC(COc1cccc2c1CCCC2)CN1CCC(Cc2ccccc2)CC1 (stereo not shown) [CBK003829] | 94.7 |
| O=C(CSc1ncccn1)Nc1sc2c(c1C(=O)Nc1ccccc1)CCCC2 [CBK265939] | 93 |
| CC(Sc1nc(N)cc(=O)[nH]1)C(=O)Nc1ccc(S(N)(=O)=O)cc1 (stereo not shown) [CBK266191] | 110 |
| Cc1ccccc1CN(CC(=O)NC1CC1)S(=O)(=O)c1ccc(Cl)cc1 [CBK265757] | 98.3 |
| CS(=O)(=O)N1CC2(CCN(CC(=O)c3ccsc3)CC2)c2ccccc21 [CBK144595T] | 87 |
| CCC1CN(C(=O)Cn2cnc3ccc(F)cc3c2=O)CCO1 (stereo not shown) [CBK305795] | 92.4 |
| Cc1ccc(C(=O)NCCN2CCC(O)(c3ccc(F)cc3)CC2)o1 [CBK283167] | 86.3 |
| Cc1cc(C(=O)C(C)Sc2nnc(N)s2)c(C)n1-c1ccccc1 (stereo not shown) [CBK297916] | 87 |
| O=c1ccc2c(-c3cccc(OCc4ccccc4)c3)ccnc2[nH]1 [CBK073739] | 87.6 |
| CCC(=O)N1CCC2(CC1)CNC(=O)c1cc(C)ccc1O2 [CBK282468] | 85.2 |
| CCOc1ccc(NCCCCO)cc1 [CBK264386] | 92 |
| CN1CCN(c2ccc(-c3cncc(N4CCN(c5ccncc5)CC4)n3)cn2)CC1 [CBK065144] | 92.9 |
| CN(C(=O)c1c[nH]nc1-c1ccc(CNC(=O)c2cccc(Cl)c2)cc1)c1ccccc1 [CBK285597] | 79.9 |
| Fc1ccc2nc(Nc3nc(-c4ccncc4)cs3)sc2c1 [CBK287487] | 105 |
| CN(C)CC(C)(C)CNC(=O)C1=CC(=O)CC(C)(C)O1 [CBK153291] | 103 |

| SMILES | viability at 28.5 h, 10 µM [%] |
| --- | --- |
| CN(C)S(=O)(=O)c1ccc(C(=O)C2=C(O)C(=O)N(Cc3cccnc3)C2c2ccc(F)cc2)cc1 (stereo not shown) [CBK264715] | 94 |
| CCn1c2ccccc2c2cc(/C=N/N3CCN(c4ccccc4OC)CC3)ccc21 [CBK101168] | 92.6 |
| Cc1cc(C)c2c(N)c(C(=O)Nc3ccc(C(=O)O)cc3)sc2n1 [CBK300515] | 100 |
| CNC(=O)Oc1cc(C)c(SC)c(C)c1 [CBK010586] | 77.2 |
| CCn1cc(C2CN(S(=O)(=O)c3ccccc3OC(F)F)CCO2)cn1 (stereo not shown) [CBK304234] | 106 |
| CC(C)(O)C1CCCN(C(=O)c2cc(COc3cccc(F)c3)[nH]n2)C1 (stereo not shown) [CBK306653] | 99.9 |
| O=C(NC1CCc2ccccc21)c1cnc(-c2ccc(Cl)cc2)c(-c2ccc(O)cc2)c1 (stereo not shown) [CBK036629] | 91 |
| O=C(CSCC(=O)c1ccc(F)cc1)Nc1ccc2ccccc2c1 [CBK263264] | 88.1 |
| O=C(Nc1ccccc1F)C1CCCN1c1nc(O)cc(C(F)(F)F)n1 (stereo not shown) [CBK004307] | 105 |
| Cc1ccc(-c2nc3ccc(C)cc3c(C(=O)OCC(=O)c3cccc([N+](=O)[O-])c3)c2C)cc1 [CBK264436] | 104 |
| O=C(O)C(c1c[nH]c2ccccc12)N1CCN(S(=O)(=O)c2ccccc2)CC1 (stereo not shown) [CBK286643] | 83.6 |
| Cc1ccc(CC(=O)N2CC(=O)Nc3ccccc32)cc1 [CBK287670] | 86.2 |
| Cc1csc(-c2cnc(N3CCOCC3)c3nccn23)c1 [CBK091287] | 87.5 |
| C#CCNS(=O)(=O)c1cccc(C(=O)N2CCOC(CC(=O)OC)C2)c1 (stereo not shown) [CBK306138] | 90.8 |
| O=C(NCc1nc2ccccc2[nH]1)c1cc(Br)cnc1N1CCOCC1 [CBK076278] | 96.7 |
| CCOC(=O)N1CCN(C(=O)COc2cccc3ccccc23)CC1 [CBK262992] | 93 |
| COC(=O)c1ccc(S(N)(=O)=O)o1 [CBK113186] | 105 |
| Cc1c(Cl)cccc1NC(=O)C(=O)NCCCN1CCOCC1 [CBK263276] | 109 |
| CS(=O)(=O)N(CC(=O)NC1CCCCC1)c1cccc2ccccc12 [CBK263770] | 83.9 |
| COc1ccccc1-c1nnc(SC)n1-c1ccc(C)cc1 [CBK076670] | 93.2 |
| Clc1ccc(Cl)c(-c2nc3ccccc3o2)n1 [CBK095353] | 91.6 |
| O=C(O)c1ccc(N2C(=O)CC(c3ccccc3)CC2=O)cc1 [CBK291169] | 87.3 |

| SMILES | viability at 28.5 h, 10 µM [%] |
| --- | --- |
| NCCn1cc(C(=O)N2Cc3cnn(Cc4ccc(F)cc4)c3C2)nn1 [CBK307461] | 107 |
| O=C1CC(c2ccco2)CC(=O)C1=CNCCN1CCN(C(=O)Nc2ccc(Cl)cc2)CC1 (stereo not shown) [CBK264743] | 80.2 |
| COc1cc(OC)c(OC)cc1CN1CCN(S(=O)(=O)c2ccc(C)cc2)CC1 [CBK263323] | 92.4 |
| CC(C)c1nc(NCCc2nnc3n2CCC3)nc(N(C)C)n1 [CBK306409] | 89.1 |
| CCCC/C=C/c1ccc(Nc2ccc(N3CCOCC3)cc2)nc1 [CBK036886] | 88.7 |
| Cc1oc2c(c1CC(=O)N(C)CCN(C)C)C(=O)CC(C)(C)C2 [CBK282171] | 105 |
| COc1ccc(OC)c(NC(=O)CSc2nnc(-c3ccc(F)cc3)n2C)c1 [CBK266073] | 92 |
| c1cnc2[nH]c(C3CCOCC3)c(CN3CCSCC3)c2c1 [CBK284688] | 89.5 |
| CC(C)c1ccc(S(=O)(=O)Nc2ccon2)cc1 [CBK044584] | 115 |
| Cc1csc(NS(=O)(=O)CC(C)C)n1 [CBK021434] | 89.1 |
| COc1ccc(F)c(CN(CC(C)(C)CN)C(=O)Nc2ccccc2C(F)(F)F)c1 [CBK002412C] | 90.1 |
| Cc1ccc(C(C)(C)CC(C)NCc2cccc(C(F)(F)F)c2)o1 (stereo not shown) [CBK262872] | 95 |
| O=C1OCCN1C1CCN(S(=O)(=O)c2cccs2)CC1 [CBK043313] | 99.3 |
| COc1ccccc1/C=N/C12CN3CN(CN(C3)C1)C2 [CBK261387] | 93 |
| CCN(CC)CCN1C(=O)C(O)=C(C(=O)c2cccs2)C1c1ccccn1 (stereo not shown) [CBK269319] | 76.3 |
| Cc1[nH]c2ccccc2c1[C@H]1CC[C@@H](NC(=O)c2ccnn2C)C1 [CBK284761] | 99.8 |
| O=C(Cc1cccc2ccccc12)NC(=S)Nc1cccc(C(=O)O)c1 [CBK267471] | 90.7 |
| NC(=O)C1CCCN(S(=O)(=O)c2ccc(S(N)(=O)=O)cc2)C1 (stereo not shown) [CBK266312] | 96.2 |
| Cc1cc2nc(NC(=N)N)[nH]c2cc1C [CBK003532] | 93.5 |
| c1ccc2c(c1)CCN(Cc1ncc[nH]1)C2 [CBK126402] | 94.7 |
| Cc1ccc(CN2CC[C@H]3[C@@H](C2)[C@H](c2ccsc2)CN3C(=O)c2ccc(F)cc2)cc1 [CBK285637] | 98.1 |
| CCCCC(=O)NC(c1ccc(Cl)cc1)c1cc([N+](=O)[O-])c2cccnc2c1O (stereo not shown) [CBK293938] | 90.1 |

| SMILES | viability at 28.5 h, 10 µM [%] |
| --- | --- |
| CC(C)CCc1c(O)nc(SCCN(C)C)[nH]c1=O [CBK263382] | 95.3 |
| O=C(O)c1ccc(S(=O)(=O)Nc2nnc(C(F)(F)F)s2)cc1 [CBK062023] | 91.5 |
| COc1ccc([C@@]23CC[C@@H](NC(=O)c4ccc(-c5ccccc5)cc4)CC2N(C)CC3)cc1OC (stereo partly shown) [CBK074973T] | 89.6 |
| CCc1nccn1CC(=O)NC(Cc1ccsc1)c1nccs1 (stereo not shown) [CBK285139] | 111 |
| COCCn1c(SC)nc2sc(-c3ccccc3)cc2c1=O [CBK295200] | 89.8 |
| O=C(C1CCCN(C2CCN(Cc3ccccc3)CC2)C1)N1CCN(c2ccccc2)CC1 (stereo not shown) [CBK265440G] | 113 |
| Cc1ccc2oc([C@H]3CCN(S(C)(=O)=O)C3)nc2c1 [CBK289371] | 97.2 |
| COCCn1c(CO)nnc1[C@H]1C[C@@H](NC(=O)c2cc(O)ccc2F)C1 [CBK307698] | 90.4 |
| Cc1cccc(Cl)c1OCC(O)CNCCc1ccccc1 (stereo not shown) [CBK003076] | 102 |
| COc1cc(/C=N/n2cnnc2)ccc1OCCOc1ccc(C(C)(C)C)cc1 [CBK263762] | 88.8 |
| COc1ccc(OC(C)C(=O)Nc2ccc(S(N)(=O)=O)cc2)cc1 (stereo not shown) [CBK263646] | 96 |
| Cn1ccnc1CN1CCC2(C/C=C/Cc3ccccc3OCC(=O)NCCNC2=O)CC1 [CBK292180] | 95.7 |
| Cc1nn(C)c(C)c1CCC(=O)N1CCCCC1c1ncc(-c2cccc(F)c2)[nH]1 (stereo not shown) [CBK291150] | 89.9 |
| COc1ccc([C@@]23CC[C@@H](NC(=O)Nc4ccc(Cl)cc4Cl)C[C@@H]2CN(C)C3)cc1OC [CBK085798T] | 88.5 |
| Cc1nc2c(-c3cccs3)c(C)nn2c(O)c1C [CBK283728] | 99.9 |
| CCCn1cc(C(=O)NCc2ccc(Cl)cc2)c(=O)c2cc(CN3CCOCC3)sc21 [CBK018478] | 93.8 |
| Cc1nc(CN(C)C2CCN(Cc3ccc4c(c3)CCC4)C2)no1 (stereo not shown) [CBK304052] | 76.5 |
| Cc1ccc(-n2c(SCC(=O)Nc3sc4c(c3C#N)CCCC4)nnc2-c2ccccc2O)c(C)c1 [CBK268692] | 77.9 |
| Nc1cc(-c2ccccc2)nn1-c1ccc(C(=O)O)cc1 [CBK286565] | 84.9 |
| CC(=O)Nc1ccc(F)c(NC(=O)NCCC2CCCN2C)c1 (stereo not shown) [CBK304661] | 101 |
| CC1(C)Cc2nc3[nH]nc(N)c3cc2CO1 [CBK261476] | 93.9 |

same assay, conditions: human, hela cells, % viability, bulk resorufin, single well

| SMILES | viability at 28.5 h, 10 µM [%] |
| --- | --- |
| O=C(O)C1C2CCC(O2)C1C(=O)NC1CCCCC1 (stereo not shown) [CBK286848] | 85 |
